Measurements published in US4048325A, “Low toxicity method of inhibiting sickling of sickle erythrocytes” (The United States of America as represented by the United …, priority 1976, dated 1977).
Read-outs that look alike come from different tables or passages of the source.

Key:
sickle erythrocytes [1] = conditions: Lubin et al 1975; cited from earlier work
NADH oxidase = assay: electron transport: NADH oxidase of mitochondrial inner membranes; type: biochemical; conditions: for effect of treatment on NADH oxidase, in words: at comparable levels of amidination
Text: (§1) When compared to bifunctional imidates, monoimidates have major advantages as therapeutic agents for the treatment of sickle cell disease. One important difference between the two classes of reagents is their relative effect on enzyme activity. […] The results as shown, respectively in Table II and FIG. 2. To facilitate a comparison of imidate action, effects were related to extent of amidination as measured by percent amino group decrease rather than the absolute reagent concentration.

succinate oxidase = assay: electron transport: succinate oxidase of mitochondrial inner membranes; type: biochemical; conditions: for effect of treatment on succinate oxidase, in words: at comparable levels of amidination
Text: as §1

ascorbate-TMPD oxidase = assay: electron transport: ascorbate-TMPD oxidase of mitochondrial inner membranes; type: biochemical; conditions: for effect of treatment on ascorbate-TMPD oxidase, in words: at comparable levels of amidination
Text: as §1

[2] = tested on: inner membrane ATPase (adenosine triphosphatase); assay: inner membrane ATPase activity; type: biochemical; conditions: at comparable levels of amidination (FIG. 2)
Text: FIG. 2 is a graph illustating the effect of dimethylsuberimidate (DMS) and ethylacetimidate (EA) on inner membrane ATPase (adenosine triphosphatase) activity. Open symbols represent DMS-treated membranes, and closed symbols represent EA-treated membranes.
as §1
In the experiment designated by the closed circles in FIG. 2, membranes were treated with high concentrations of EA to determine the extent of amidination required for complete inhibition of activity. The concentrations of EA required for complete inhibition of activity are considerably in excess of the amount required to inhibit sickling.

sickle erythrocytes [3] = assay: in vitro sickling of sickle erythrocytes after amidination; type: cell-based, human
Protocol: (§2) Cells were washed with Krebs-Henseleit Buffer (pH 7.4) to remove non-erythrocyte blood elements and resuspended in the same medium to a final hematocrit of 20-40%. Erythrocyte suspensions (4% hematocrit) were incubated in KHB (pH 8.5) containing freshly dissolved EA (1-10 mM). After incubation at room temperature (20°-22°) for 30 min, the cells were washed twice with KH buffer (pH 7.4) and resuspended either in the original plasma (40% hematocrit) for analysis of sickling or in other solutions as described below. To amidinate under anoxia the cells were equilibrated with nitrogen in a tonometer until no oxygen could be detected polarographically. Imidates were added in the dry state to anaerobic cell suspensions. Following treatment, the suspensions were diluted 1:1 with 0.1M Tris-acetate--0.15M NaCl buffer (pH 6.0) to quench amidination, and the cells washed as described above.
The cells were deoxygenated with freshly prepared sodium metabisulfite, fixed with 10% formaldehyde, and examined microscopically. Hypoxic conditions: Cell suspensions were deoxygenated by equilibration with 3% oxygen. Five hundred cells were conted to ascertain the extent of sickling.

erythrocytes = assay: hemolysis following incubation under the conditions of amidination; type: cell-based, human; conditions: after incubation under the conditions of amidination
Protocol: as §2

[4] = target: T1, hemoglobin of normal cells (Homo sapiens, UniProt P68871+P69905); assay: hemoglobin-oxygen affinity (P50), normal cells; type: cell-based; conditions: 1 mM
T1 construct: endogenous in cells; host or cells: normal erythrocytes from healthy volunteers
Protocol: as §2
(§3) The oxygen affinity of whole blood (P50) was determined in a tonometer as in B. H. Lubin et al, cited above.
(§4) Since oxyhemoglobin and deoxyhemoglobin differ in quaternary structure and since the structural differences may affect the manner in which imidates react with hemoglobin, amidination was carried out in the presence and absence of oxygen and the effect on oxygen affinity was then examined.

[5] = target: T2, hemoglobin of sickle cells (Homo sapiens, UniProt P68871+P69905, E7V); assay: hemoglobin-oxygen affinity (P50), sickle cells; type: cell-based; conditions: 1 mM
T2 construct: endogenous in cells; host or cells: sickle erythrocytes (Children's Hospital, Oakland, CA)
Protocol: as §2, §3, §4

rats = assay: animal survival after exchange of treated blood; type: in vivo, rat; conditions: 30mM in whole blood
Protocol: In experiments conducted to determine the effect of monoimidates on animal survival, rats were treated with ethylacetimidate at levels of 30mM in whole blood under conditions similar to the in vitro studies described above. This level fo treatment is at least 30 times higher than required for prevention of sickling in vitro. At least three-fourths of the blood was treated and exchanged.

in vivo = conditions: ip, intraperitoneal
Text: Each compound was made up in KH buffer (280 Mosm) buffered to pH 7.4 with 5N NaOH. The final volume for each injection was 1 cc in rats in 0.5 cc in mice.

sickle erythrocytes [6] = assay: net potassium leak which accompanies sickling; type: cell-based, human

SMILES: COC(=N)CCCCC(=N)OC [DMA, dimethyl adipimidate]
- inhibition of sickling in vitro (literature report) (sickle erythrocytes [1]): inhibit sickling in vitro

SMILES: COC(=N)CCCCCCC(=N)OC [DMS, dimethylsuberimidate, reference compound]
- NADH oxidase activity (% control) (NADH oxidase; 2 mM): 58 % control
- NADH oxidase activity (% control) (NADH oxidase; 10 mM): 10 % control
- effect of treatment on NADH oxidase, in words (NADH oxidase): markedly inhibited
- Succinate oxidase activity (% control) (succinate oxidase; 2 mM): 62 % control
- Succinate oxidase activity (% control) (succinate oxidase; 10 mM): 22 % control
- effect of treatment on succinate oxidase, in words (succinate oxidase): markedly inhibited
- Ascorbate-TMPD oxidase activity (% control) (ascorbate-TMPD oxidase; 2 mM): 61 % control
- Ascorbate-TMPD oxidase activity (% control) (ascorbate-TMPD oxidase; 10 mM): 28 % control
- effect of treatment on ascorbate-TMPD oxidase, in words (ascorbate-TMPD oxidase): markedly inhibited
- effect of treatment on ATPase activity, in words [2]: markedly inhibited

SMILES: CCOC(C)=N [EA, ethyl acetimidate]
- inhibition of sickling (sickle erythrocytes [3]; 2-5 mM imidate, in vitro): nearly complete inhibition
- inhibition at 1000 µM (sickle erythrocytes [3]; Homo sapiens, Erythrocyte, 1 mM imidate, in vitro, read-out: prevention of sickling): 70 to 80%
- prevention of sickling on renewed deoxygenation of cells amidinated under anoxia (sickle erythrocytes [3]; compared with amidination in the presence of oxygen): sickling was prevented to the same degree
- effectiveness under hypoxic and anoxic conditions (sickle erythrocytes [3]; deoxygenation with 3% oxygen or sodium metabisulfite): effective under both hypoxic and anoxic conditions
- inhibition of sickling (sickle erythrocytes [3]; low imidate concentrations (1-2mM)): approximately 80%
- hemolysis (erythrocytes): Negligible hemolysis
- P50 ([4]; amidinated deoxygenated): 28.0 mm Hg
- P50 ([4]; amidinated oxygenated): 25.0 mm Hg
- P50 ([5]; amidinated deoxygenated): 35.0 mm Hg
- P50 ([5]; amidinated oxygenated): 27.0 mm Hg
- NADH oxidase activity (% control) (NADH oxidase; 4 mM): 78 % control
- NADH oxidase activity (% control) (NADH oxidase; 20 mM): 56 % control
- effect of treatment on NADH oxidase, in words (NADH oxidase): significantly less sensitive to EA than DMS
- Succinate oxidase activity (% control) (succinate oxidase; 4 mM): 61 % control
- Succinate oxidase activity (% control) (succinate oxidase; 20 mM): 45 % control
- effect of treatment on succinate oxidase, in words (succinate oxidase): significantly less sensitive to EA than DMS
- Ascorbate-TMPD oxidase activity (% control) (ascorbate-TMPD oxidase; 4 mM): 73 % control
- Ascorbate-TMPD oxidase activity (% control) (ascorbate-TMPD oxidase; 20 mM): 64 % control
- effect of treatment on ascorbate-TMPD oxidase, in words (ascorbate-TMPD oxidase): significantly less sensitive to EA than DMS
- effect of treatment on ATPase activity, in words [2]: significantly less inhibitory
- deleterious effects after exchange of treated blood (rats; at least three-fourths of the blood treated and exchanged, three experiments): no deleterious effects
- hematocrits after treatment (rats; due to the loss of blood during the transfusion): slightly reduced
- LD50 (in vivo; mouse, mice, read-out: LD50 (Lethal dose for 50% of the animals)): 950 mg/kg
- LD50 (in vivo; rat, rats): 900 mg/kg

SMILES: COC(C)=N [methylacetimidate, methyl acetimidate]
- prevention of in vitro sickling compared with EA (sickle erythrocytes [3]): as effective as EA
- net potassium leak which accompanies sickling (sickle erythrocytes [6]): elimination of the net potassium leak

SMILES: CCCC(=N)OC [methylbutyrimidate, methyl butyrimidate]
- prevention of in vitro sickling compared with EA (sickle erythrocytes [3]): as effective as EA
